Laboratory results published in publication PMC11018627, “KdpD is a tandem serine histidine kinase that controls K^+ pump KdpFABC transcriptionally and post-translationally” (Nature Communications, 2024).

Assays:
[1] = target: T1, KdpDNTD (Escherichia coli, UniProt P21865); assay: in vitro phosphorylation of KdpB, phosphoprotein gel stain; format: biochemical; details: phosphate donor of serine kinase; 5 mM ATP, 400 mM KCl, room temperature, 30 min, KdpFABC (KdpB D307N) as protein substrate; no ATPase activity alone
T1 construct: gene kdpD

[2] = target: T2, DgKdpD (Deinococcus geothermalis, UniProt Q1J2K3); assay: as above; format: biochemical; details: phosphate donor of serine kinase; 5 mM ATP, 1 mM c-di-AMP, room temperature, 30 min, E. coli KdpFABC (KdpB D307N) as protein substrate
T2 construct: gene Dgeo_2852; short KdpD/Usp domain version, full chain; expressed in E. coli TK2281 from pBXC3H; His-tag removed with 3C protease on column
T2 sequence (Q1J2K3 entry or part of it): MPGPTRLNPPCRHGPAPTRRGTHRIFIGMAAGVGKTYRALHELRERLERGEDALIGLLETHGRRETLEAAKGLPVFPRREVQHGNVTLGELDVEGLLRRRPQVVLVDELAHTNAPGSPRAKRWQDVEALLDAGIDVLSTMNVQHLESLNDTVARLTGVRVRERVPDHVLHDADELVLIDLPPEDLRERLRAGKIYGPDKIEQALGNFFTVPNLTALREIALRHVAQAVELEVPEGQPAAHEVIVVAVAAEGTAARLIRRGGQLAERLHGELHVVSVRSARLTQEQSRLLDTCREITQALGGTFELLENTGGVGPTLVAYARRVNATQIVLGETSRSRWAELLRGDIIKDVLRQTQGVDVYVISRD

[3] = target: T3, EcKdpD (Escherichia coli, UniProt P21865); assay: as above; format: biochemical; details: phosphate donor of serine kinase; 5 mM ATP, 400 mM KCl, room temperature, 30 min, KdpFABC (KdpB D307N) as protein substrate
T3 construct: gene kdpD; full-length, from pBXC3H (His-tag), produced in E. coli TK2281, purified in DDM or SMALPs
T3 sequence (P21865 1-894): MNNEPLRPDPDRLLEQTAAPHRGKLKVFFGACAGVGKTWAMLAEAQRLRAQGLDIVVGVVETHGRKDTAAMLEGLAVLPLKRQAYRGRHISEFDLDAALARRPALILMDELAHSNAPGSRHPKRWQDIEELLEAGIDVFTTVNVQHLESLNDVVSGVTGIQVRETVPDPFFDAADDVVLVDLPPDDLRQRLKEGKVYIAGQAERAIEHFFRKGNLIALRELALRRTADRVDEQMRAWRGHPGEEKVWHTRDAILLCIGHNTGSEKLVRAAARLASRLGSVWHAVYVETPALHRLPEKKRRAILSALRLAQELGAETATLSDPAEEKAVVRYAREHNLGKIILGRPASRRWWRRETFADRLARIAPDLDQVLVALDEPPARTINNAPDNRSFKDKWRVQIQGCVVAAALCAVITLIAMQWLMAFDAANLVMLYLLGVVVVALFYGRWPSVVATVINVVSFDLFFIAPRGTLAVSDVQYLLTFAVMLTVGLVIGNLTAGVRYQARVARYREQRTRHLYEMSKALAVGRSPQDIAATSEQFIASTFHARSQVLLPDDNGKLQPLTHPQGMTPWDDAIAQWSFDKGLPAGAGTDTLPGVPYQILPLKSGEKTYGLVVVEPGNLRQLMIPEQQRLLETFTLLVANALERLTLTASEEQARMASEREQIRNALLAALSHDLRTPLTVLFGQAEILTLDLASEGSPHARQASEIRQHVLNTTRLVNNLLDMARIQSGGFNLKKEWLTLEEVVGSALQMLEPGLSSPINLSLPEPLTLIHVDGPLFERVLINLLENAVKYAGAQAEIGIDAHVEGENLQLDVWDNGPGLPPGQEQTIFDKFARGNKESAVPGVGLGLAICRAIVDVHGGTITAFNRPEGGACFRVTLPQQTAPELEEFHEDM

[4] = target: T4, KdpFABC (Escherichia coli, UniProt P03960); details: 2 mM ATP, 1 mM KCl, 37 °C; non-phosphorylated complex purified from E. coli TK2281
T4 construct: gene kdpB
T4 sequence (P03959 whole entry): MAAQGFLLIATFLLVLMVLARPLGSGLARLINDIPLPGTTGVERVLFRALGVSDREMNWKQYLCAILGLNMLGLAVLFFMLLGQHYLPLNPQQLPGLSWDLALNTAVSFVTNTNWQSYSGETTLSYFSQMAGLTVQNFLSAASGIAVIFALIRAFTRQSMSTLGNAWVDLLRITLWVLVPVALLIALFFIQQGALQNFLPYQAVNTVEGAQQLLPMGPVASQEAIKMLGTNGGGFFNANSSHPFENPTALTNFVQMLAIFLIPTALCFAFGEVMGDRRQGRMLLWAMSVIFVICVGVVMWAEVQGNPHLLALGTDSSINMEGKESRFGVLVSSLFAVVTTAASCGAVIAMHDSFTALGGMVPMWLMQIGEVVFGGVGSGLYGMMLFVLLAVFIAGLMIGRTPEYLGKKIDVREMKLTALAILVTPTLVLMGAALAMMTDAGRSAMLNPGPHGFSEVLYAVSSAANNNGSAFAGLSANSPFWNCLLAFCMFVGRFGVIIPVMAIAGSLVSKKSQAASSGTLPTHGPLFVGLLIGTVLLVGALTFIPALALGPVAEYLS
T4 sequence (P36937 whole entry, further chain): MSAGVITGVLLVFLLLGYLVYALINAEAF
T4 sequence (P03961 whole entry, further chain): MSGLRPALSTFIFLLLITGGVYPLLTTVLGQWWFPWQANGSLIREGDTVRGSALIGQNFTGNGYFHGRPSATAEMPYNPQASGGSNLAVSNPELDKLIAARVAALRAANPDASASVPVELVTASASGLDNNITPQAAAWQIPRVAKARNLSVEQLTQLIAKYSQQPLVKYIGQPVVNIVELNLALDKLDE
T4 sequence (P03960 whole entry): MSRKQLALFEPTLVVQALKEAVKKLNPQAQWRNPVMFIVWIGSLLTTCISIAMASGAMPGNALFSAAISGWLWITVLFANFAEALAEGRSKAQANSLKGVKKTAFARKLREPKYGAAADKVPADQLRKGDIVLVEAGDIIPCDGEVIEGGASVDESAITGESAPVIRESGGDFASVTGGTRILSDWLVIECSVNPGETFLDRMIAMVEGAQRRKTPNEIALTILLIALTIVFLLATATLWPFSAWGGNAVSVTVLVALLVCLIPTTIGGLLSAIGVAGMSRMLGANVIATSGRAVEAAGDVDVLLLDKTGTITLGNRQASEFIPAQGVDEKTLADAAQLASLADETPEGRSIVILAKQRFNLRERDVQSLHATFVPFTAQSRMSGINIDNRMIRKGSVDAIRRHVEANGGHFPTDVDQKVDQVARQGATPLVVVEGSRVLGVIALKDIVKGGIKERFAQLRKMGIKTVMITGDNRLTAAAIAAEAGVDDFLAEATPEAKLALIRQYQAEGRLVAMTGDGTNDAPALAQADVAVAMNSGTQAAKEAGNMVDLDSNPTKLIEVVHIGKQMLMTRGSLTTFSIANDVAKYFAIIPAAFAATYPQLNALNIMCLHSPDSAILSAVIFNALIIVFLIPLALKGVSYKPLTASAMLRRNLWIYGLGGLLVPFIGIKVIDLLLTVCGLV

[5] = target: T2, DgKdpD; assay: in vitro phosphorylation of E. coli KdpB, phosphoprotein gel stain; format: biochemical; details: activator; 1 mM c-di-AMP, 5 mM ATP, E. coli KdpFABC (KdpB D307N) as protein substrate, room temperature, 30 min

Row | SMILES | in vitro phosphorylation of KdpB, phosphoprotein gel stain [1] | in vitro phosphorylation of KdpB, phosphoprotein gel stain [2] | in vitro phosphorylation of KdpB, phosphoprotein gel stain [3] | malachite green ATPase assay [4] | stimulation of ASK activity at 1 mM [5]
1 | Nc1ncnc2c1ncn2[C@@H]1O[C@H](COP(=O)(O)OP(=O)(O)OP(=O)(O)O)[C@@H](O)[C@H]1O [ATP] | This truncated construct remained able to phosphorylate KdpB | DgKdpD can phosphorylate E. coli KdpB | Upon incubation with full-length KdpD, the phosphorylation was fully restored | KdpFABC produced under these conditions showed a high ATPase activity | 
2 | Nc1ncnc2c1ncn2[C@@H]1O[C@@H]2COP(=O)(O)O[C@H]3[C@@H](O)[C@H](n4cnc5c(N)ncnc54)O[C@@H]3COP(=O)(O)O[C@H]2[C@H]1O [c-di-AMP] |  |  |  |  | phosphorylation of E. coli KdpB by DgKdpD was stimulated in the presence of c-di-AMP
